Laboratory results as given in the NIST ThermoML archive (doi:10.1021/je800312g).
“And” between values parts separate entries of the source, which are not always exact repeats. Equal entries are not always repeated.

Settings: Fluid (supercritical or subcritical phases), Impulsive stimulated scattering

N [ammonia]
Settings | speed of sound
297 K, 620000 kPa | 2741 m/s
297 K, 700000 kPa | 2836 m/s
297 K, 780000 kPa | 2942 m/s and 2932 m/s
297 K, 880000 kPa | 3023 m/s
297 K, 970000 kPa | 3113 m/s
298 K, 370000 kPa | 2376 m/s
298 K, 740000 kPa | 2903 m/s
474 K, 1430000 kPa | 3280 m/s
476 K, 1550000 kPa | 3375 m/s
476 K, 2200000 kPa | 3788 m/s
477 K, 1090000 kPa | 2954 m/s
479 K, 2220000 kPa | 3797 m/s
678 K, 2920000 kPa | 4000 m/s
678 K, 3080000 kPa | 4072 m/s
678 K, 3140000 kPa | 4103 m/s
679 K, 1480000 kPa | 3084 m/s
679 K, 2440000 kPa | 3740 m/s
679 K, 3750000 kPa | 4342 m/s
680 K, 1350000 kPa | 2982 m/s and 2970 m/s
